Several values for one entry are separate records, joined by “and”; a condition that tells them apart may be missing. Equal entries are not always repeated.
Experiments:
[1] = system: HCT116 multicellular tumor spheroids; assay: Resazurin assay, HCT116 3D spheroids; format: cell-based, human; settings: 96 h; for IC50: spheroids
Experimental: (§1) CH1/PA-1 (ovarian teratocarcinoma), SW480 (colon carcinoma) and A549 (non-small cell lung cancer) cells were maintained as described in the reference. IMR-90 human fetal lung fibroblasts (from the European Collection of Authenticated Cell Cultures, Porton Down, Salisbury, UK) were cultured in Stable Cell^TM DMEM/F12 supplemented with 0.01 mg/mL human recombinant insulin (both purchased from Sigma-Aldrich) and 10% fetal bovine serum (FBS, BioWest, Nuaillé, France). Human colon carcinoma cell lines HCT116 and HT29 (both kindly provided by the Institute of Cancer Research, Department of Medicine I, Medical University of Vienna, Austria) were cultured in McCoy’s 5a medium supplemented with 4 mM L-glutamine (both purchased from Sigma-Aldrich) and 10% FBS. MCF-7 human breast adenocarcinoma cells (kindly provided by M. Ogris, Department of Pharmaceutical Sciences, University of Vienna, Austria) were maintained in DMEM (high glucose) supplemented with 4 mM L-glutamine, 0.1 mg/mL human insulin (all purchased from Sigma-Aldrich) and 10% FBS. All cell lines were grown as monolayers in 75 cm^2 culture flasks (CytoOne, Starlab, Hamburg, Germany) at 37 °C in a humidified atmosphere containing 5% CO2.
(§2) For growing multicellular tumor spheroids, 400 HCT116, 400 HT29 or 800 MCF-7 cells per well were plated into round-bottom ultra-low attachment 96-well plates (Corning, Glendale, AZ, USA) in the media described above and incubated at 37 °C for 96 h. Spheroids were treated with 10 µM of the two most cytotoxic compounds 3 and 4 for another 96 h. The diameters of the spheroids were measured with Cell^F software under a CKX41 Olympus microscope before treatment and in constant daily intervals over the 96 h treatment period. For statistical analysis the t-test with Welsh’s correction was implemented in GraphPad Prism software (Version 6.01).
(§3) For the resazurin assay in monolayer cultures, cells were seeded into 96-well microculture plates (CytoOne, tissue culture treated, Starlab, Hamburg, Germany) in densities of 2 × 10^3 HCT116, 2 × 10^3 HT29 and 4 × 10^3 MCF-7 cells per well (each in 100 µL). For tests in 3D cultures, spheroids were grown as described above. After 24 h (for monolayers) or 4 days (for spheroids) the test compounds in the appropriate medium were added in serial dilution to the plates to obtain a total volume of 200 µL/well. Wells without cells, containing medium and resazurin (Alfa Aesar, Thermo Fisher, Kandel, Germany) solution were used as blanks. After 96 h exposure 20 µL of the resazurin solution (440 µM) were added to each well, followed by a 4 h (2D) or 12 h (3D) incubation period. Resorufin fluorescence was quantified at 530 nm (and a reference wavelength of 620 nm) by using a microplate reader (Synergy HT, BioTek) with Gen5^TM 3.10 software (BioTek).

[2] = system: HT29 multicellular tumor spheroids; assay: Resazurin assay, HT29 3D spheroids; format: cell-based, human; settings: 96 h; for IC50: spheroids
Experimental: as §1, §2, §3

MCF-7 cells [3] = assay: Resazurin assay, MCF-7 2D monolayer; format: cell-based, human; settings: 96 h
Experimental: as §1, §3

HCT116 cells [4] = assay: Annexin V-FITC/PI apoptosis assay, HCT116; format: cell-based, human; settings: HCT116, 24 h; for ∑apoptotic cells [%]: sum of early and late
[5] = system: SW480 (colon carcinoma) cells; assay: MTT cytotoxicity assay, SW480 monolayer; format: cell-based, human; settings: exposure time 96 h, mean ± SD
Experimental: as §1
(§4) Exponentially growing cells were plated into 96-well microculture plates (CytoOne, tissue culture treated, Starlab, Hamburg, Germany) in densities of 1 × 10^3 CH1/PA-1, 2 × 10^3 SW480, 3 × 10^3 A549 and 7 × 10^3 IMR-90 cells per well (each in 100 µL). After a 24 h preincubation, drugs were added in serial dilution to give a final volume of 200 µL/well and exposed for 96 h. At the end of the exposure, the drug solutions were replaced by 100 µL RPMI 1640/MTT mixture (7:1 ratio). MTT (3-(4,5-dimethylthiazol-2-yl)-2,5-diphenyl-2H-tetrazolium bromide), (Acros Organics, Geel, Belgium) solution was prepared in phosphate-buffered saline (5 mg/mL) and mixed with RPMI1640 medium supplemented with 4 mM L-glutamine (both from Sigma-Aldrich) and 10% FBS. After 4 h incubation, the formazan crystals were solubilized in 150 µL of DMSO per well. Absorbance was measured at 550 nm (and at 690 nm as a reference) with a microplate reader (ELx808, BioTek, Winoosky, VT, USA) and Gen5^TM 3.08 software (BioTek). The 50% inhibitory concentrations (IC50) relative to untreated controls were interpolated from concentration-effect curves. At least three biologically and technically independent experiments were performed.

[6] = Solubility in PBS (1% DMSO); format: physicochemical
Experimental: Stock solutions in DMSO of compounds 1–10 were utilized to determine the solubility in PBS by adding 1 vol% of the stock solution to a suitable amount of PBS. […] UV/Vis data were recorded on a Perkin Elmer Lambda 650 UV/Vis Spectrophotometer with a Peltier element for temperature control.

MCF-7 cells [7] = assay: Annexin V-FITC/PI apoptosis assay, MCF-7; settings: MCF-7, 24 h; for ∑apoptotic cells [%]: sum of early and late
[8] = system: CH1/PA-1 (ovarian teratocarcinoma) cells; assay: MTT cytotoxicity assay, CH1/PA-1 monolayer; format: cell-based, human; settings: exposure time 96 h, mean ± SD
Experimental: as §1, §4

HCT116 cells [9] = assay: Resazurin assay, HCT116 2D monolayer; format: cell-based, human; settings: 96 h
Experimental: as §1, §3

[10] = system: MCF-7 multicellular tumor spheroids; assay: Resazurin assay, MCF-7 3D spheroids; format: cell-based, human; settings: 96 h; for IC50: spheroids
Experimental: as §1, §2, §3

CCc1occc(=S)c1[O-].F[P-](F)(F)(F)(F)F.[W+4].c1cc[cH-]c1.c1cc[cH-]c1 [Compound 10, Bis(η^5-cyclopentadienyl)[2-ethyl-3-(oxo-κO)-4-(1H)-pyran-4-thionato-κS] tungsten(IV) hexafluorophosphate]
ratio 3D/2D of IC50 values, HCT116 [1]: 1.6
IC50 [1]: 69 ± 12 µM
ratio 3D/2D of IC50 values, HT29 [2]: > 3.7
IC50 [2]: > 200 µM
IC50 (MCF-7 cells [3]): 29 ± 4 µM
early apoptotic cells [%] AV+ / PI- (HCT116 cells [4]; 200 µM): 3.8 ± 3.2%
late apoptotic cells [%] AV+ / PI+ (HCT116 cells [4]; 200 µM): 4.3 ± 3.6%
necrotic cells [%] AV- / PI+ (HCT116 cells [4]; 200 µM): 2.4 ± 0.7%
viable cells [%] AV- / PI- (HCT116 cells [4]; 200 µM): 89.6 ± 7.5%
∑apoptotic cells [%] (HCT116 cells [4]; 200 µM): 8.0%
IC50 [5]: 13 ± 1 µM
Solubility in PBS (1% DMSO) [6]: 320 µg/mL
early apoptotic cells [%] AV+ / PI- (MCF-7 cells [7]; 200 µM): 5.5 ± 3.2%
late apoptotic cells [%] AV+ / PI+ (MCF-7 cells [7]; 200 µM): 46.3 ± 3.2%
necrotic cells [%] AV- / PI+ (MCF-7 cells [7]; 200 µM): 32.4 ± 12.3%
viable cells [%] AV- / PI- (MCF-7 cells [7]; 200 µM): 15.7 ± 6.0%
IC50 [8]: 21 ± 1 µM
IC50 (HCT116 cells [9]): 42 ± 3 µM
ratio 3D/2D of IC50 values, MCF-7 [10]: > 6.9
IC50 [10]: > 200 µM

F[P-](F)(F)(F)(F)F.O=c1c([O-])c(-c2ccc(Cl)cc2)oc2ccccc12.[W+4].c1cc[cH-]c1.c1cc[cH-]c1 [Compound 3, Bis(η^5-cyclopentadienyl)[2-(4-chlorophenyl)-3-(oxo-κO)-4(H)-chromen-4-oato-κO]tungsten(IV) hexafluorophosphate]
ratio 3D/2D of IC50 values, HCT116 [1]: 2.3
IC50 [1]: 21 ± 4 µM
ratio 3D/2D of IC50 values, HT29 [2]: 5.1
IC50 [2]: 86 ± 2 µM
IC50 (MCF-7 cells [3]): 6.5 ± 1.8 µM
early apoptotic cells [%] AV+ / PI- (HCT116 cells [4]; 2 µM): 4.6 ± 1.7%
late apoptotic cells [%] AV+ / PI+ (HCT116 cells [4]; 2 µM): 13.5 ± 0.6%
necrotic cells [%] AV- / PI+ (HCT116 cells [4]; 2 µM): 4.3 ± 0.7%
viable cells [%] AV- / PI- (HCT116 cells [4]; 2 µM): 77.7 ± 1.6%
∑apoptotic cells [%] (HCT116 cells [4]; 2 µM): 18.1%
early apoptotic cells [%] AV+ / PI- (HCT116 cells [4]; 20 µM): 5.0 ± 0.9%
late apoptotic cells [%] AV+ / PI+ (HCT116 cells [4]; 20 µM): 12.1 ± 2.9%
necrotic cells [%] AV- / PI+ (HCT116 cells [4]; 20 µM): 2.5 ± 0.6%
viable cells [%] AV- / PI- (HCT116 cells [4]; 20 µM): 80.4 ± 2.6%
∑apoptotic cells [%] (HCT116 cells [4]; 20 µM): 17.1%
early apoptotic cells [%] AV+ / PI- (HCT116 cells [4]; 100 µM): 3.3 ± 1.1%
late apoptotic cells [%] AV+ / PI+ (HCT116 cells [4]; 100 µM): 75.5 ± 5.6%
necrotic cells [%] AV- / PI+ (HCT116 cells [4]; 100 µM): 12.8 ± 0.2%
viable cells [%] AV- / PI- (HCT116 cells [4]; 100 µM): 8.6 ± 4.3%
∑apoptotic cells [%] (HCT116 cells [4]; 100 µM): 78.8%
early apoptotic cells [%] AV+ / PI- (HCT116 cells [4]; 200 µM): 0.0 ± 0.0%
late apoptotic cells [%] AV+ / PI+ (HCT116 cells [4]; 200 µM): 94.1 ± 4.8%
necrotic cells [%] AV- / PI+ (HCT116 cells [4]; 200 µM): 5.5 ± 4.9%
viable cells [%] AV- / PI- (HCT116 cells [4]; 200 µM): 0.4 ± 0.3%
IC50 [5]: 5.4 ± 1.1 µM
Solubility in PBS (1% DMSO) [6]: 30 µg/mL
early apoptotic cells [%] AV+ / PI- (MCF-7 cells [7]; 2 µM): 1.4 ± 0.5%
late apoptotic cells [%] AV+ / PI+ (MCF-7 cells [7]; 2 µM): 4.3 ± 1.5%
necrotic cells [%] AV- / PI+ (MCF-7 cells [7]; 2 µM): 2.5 ± 0.6%
viable cells [%] AV- / PI- (MCF-7 cells [7]; 2 µM): 91.8 ± 1.9%
∑apoptotic cells [%] (MCF-7 cells [7]; 2 µM): 5.6%
early apoptotic cells [%] AV+ / PI- (MCF-7 cells [7]; 10 µM): 1.4 ± 0.3%
late apoptotic cells [%] AV+ / PI+ (MCF-7 cells [7]; 10 µM): 7.7± 4.4%
necrotic cells [%] AV- / PI+ (MCF-7 cells [7]; 10 µM): 4.1 ± 1.8%
viable cells [%] AV- / PI- (MCF-7 cells [7]; 10 µM): 86.9 ± 5.9%
∑apoptotic cells [%] (MCF-7 cells [7]; 10 µM): 9.1%
early apoptotic cells [%] AV+ / PI- (MCF-7 cells [7]; 20 µM): 1.5 ± 0.6%
late apoptotic cells [%] AV+ / PI+ (MCF-7 cells [7]; 20 µM): 11.4 ± 0.7%
necrotic cells [%] AV- / PI+ (MCF-7 cells [7]; 20 µM): 8.7 ± 0.3%
viable cells [%] AV- / PI- (MCF-7 cells [7]; 20 µM): 78.5 ± 1.0%
∑apoptotic cells [%] (MCF-7 cells [7]; 20 µM): 12.9%
early apoptotic cells [%] AV+ / PI- (MCF-7 cells [7]; 50 µM): 1.3 ± 0.5%
late apoptotic cells [%] AV+ / PI+ (MCF-7 cells [7]; 50 µM): 16.2 ± 2.5%
necrotic cells [%] AV- / PI+ (MCF-7 cells [7]; 50 µM): 25 ± 0.9%
viable cells [%] AV- / PI- (MCF-7 cells [7]; 50 µM): 57.7 ± 2.2%
IC50 [8]: 2.7 ± 0.4 µM
IC50 (HCT116 cells [9]): 9.2 ± 1.4 µM
ratio 3D/2D of IC50 values, MCF-7 [10]: 6.8 and 7.0
IC50 [10]: 44 ± 1 µM
